As usually defined, the EC50 is the midpoint of the concentration-response curve.

The target of the test is human mGlu5a receptor (Homo sapiens (Human), UniProt P41594). Kind of test: Intracellular Ca2+ mobilization assay (mGlu5 PAM). The format is cell-based. As to conditions: for EC50: HEK-293 cells stably transfected with human mGlu5a, L-glutamate added at EC20 (typically around 80 μM); for Emax: maximal response in % of the maximal stimulatory effect obtained with saturating concentrations of L-glutamate, read-out: Eff. (%). Here is the method:
A monoclonal HEK-293 cell line stably transfected with a cDNA encoding for the human mGlu5a receptor was generated; for the work with mGlu5 Positive Allosteric Modulators (PAMs), a cell line with low receptor expression levels and low constitutive receptor activity was selected to allow the differentiation of agonistic versus PAM activity. Cells were cultured according to standard protocols (Freshney, 2000) in Dulbecco's Modified Eagle Medium with high glucose supplemented with 1 mM glutamine, 10% (vol/vol) heat-inactivated bovine calf serum, Penicillin/Streptomycin, […] hygromycin and 15 μg/ml blasticidin (all cell culture reagents and antibiotics from Invitrogen, Basel, Switzerland).
About 24 hrs before an experiment, 5×10^4 cells/well were seeded in poly-D-lysine coated, black/clear-bottomed 96-well plates. The cells were loaded with 2.5 μM Fluo-4AM in loading buffer (1×HBSS, 20 mM HEPES) for 1 hr at 37° C. and washed five times with loading buffer. The cells were transferred into a Functional Drug Screening System 7000 (Hamamatsu, Paris, France), and 11 half logarithmic serial dilutions of test compound at 37° C. were added and the cells were incubated for 10-30 min. with on-line recording of fluorescence. Following this pre-incubation step, the agonist L-glutamate was added to the cells at a concentration corresponding to EC20 (typically around 80 μM) with on-line recording of fluorescence; in order to account for day-to-day variations in the responsiveness of cells, the EC20 of glutamate was determined immediately ahead of each experiment by recording of a full dose-response curve of glutamate.
Responses were measured as peak increase in fluorescence minus basal (i.e. fluorescence without addition of L-glutamate), normalized to the maximal stimulatory effect obtained with saturating concentrations of L-glutamate. Graphs were plotted with the % maximal stimulatory using XLfit, a curve fitting program that iteratively plots the data using Levenburg Marquardt algorithm. The single site competition analysis equation used was y=A+((B−A)/(1+((x/C)D))), where y is the % maximal stimulatory effect, A is the minimum y, B is the maximum y, C is the EC50, x is the log 10 of the concentration of the competing compound and D is the slope of the curve (the Hill Coefficient). From these curves the EC50 (concentration at which half maximal stimulation was achieved), the Hill coefficient as well as the maximal response in % of the maximal stimulatory effect obtained with saturating concentrations of L-glutamate were calculated.
A depression of the signal observed after addition of the EC20 concentration of L-glutamate was indicative of an inhibitory activity of the test compound.
Background: A change in cytosolic calcium serves as a functional read-out for many receptors and channels.

Chain of human mGlu5a receptor (P41594 other isoform, or with tags, fused parts or gaps): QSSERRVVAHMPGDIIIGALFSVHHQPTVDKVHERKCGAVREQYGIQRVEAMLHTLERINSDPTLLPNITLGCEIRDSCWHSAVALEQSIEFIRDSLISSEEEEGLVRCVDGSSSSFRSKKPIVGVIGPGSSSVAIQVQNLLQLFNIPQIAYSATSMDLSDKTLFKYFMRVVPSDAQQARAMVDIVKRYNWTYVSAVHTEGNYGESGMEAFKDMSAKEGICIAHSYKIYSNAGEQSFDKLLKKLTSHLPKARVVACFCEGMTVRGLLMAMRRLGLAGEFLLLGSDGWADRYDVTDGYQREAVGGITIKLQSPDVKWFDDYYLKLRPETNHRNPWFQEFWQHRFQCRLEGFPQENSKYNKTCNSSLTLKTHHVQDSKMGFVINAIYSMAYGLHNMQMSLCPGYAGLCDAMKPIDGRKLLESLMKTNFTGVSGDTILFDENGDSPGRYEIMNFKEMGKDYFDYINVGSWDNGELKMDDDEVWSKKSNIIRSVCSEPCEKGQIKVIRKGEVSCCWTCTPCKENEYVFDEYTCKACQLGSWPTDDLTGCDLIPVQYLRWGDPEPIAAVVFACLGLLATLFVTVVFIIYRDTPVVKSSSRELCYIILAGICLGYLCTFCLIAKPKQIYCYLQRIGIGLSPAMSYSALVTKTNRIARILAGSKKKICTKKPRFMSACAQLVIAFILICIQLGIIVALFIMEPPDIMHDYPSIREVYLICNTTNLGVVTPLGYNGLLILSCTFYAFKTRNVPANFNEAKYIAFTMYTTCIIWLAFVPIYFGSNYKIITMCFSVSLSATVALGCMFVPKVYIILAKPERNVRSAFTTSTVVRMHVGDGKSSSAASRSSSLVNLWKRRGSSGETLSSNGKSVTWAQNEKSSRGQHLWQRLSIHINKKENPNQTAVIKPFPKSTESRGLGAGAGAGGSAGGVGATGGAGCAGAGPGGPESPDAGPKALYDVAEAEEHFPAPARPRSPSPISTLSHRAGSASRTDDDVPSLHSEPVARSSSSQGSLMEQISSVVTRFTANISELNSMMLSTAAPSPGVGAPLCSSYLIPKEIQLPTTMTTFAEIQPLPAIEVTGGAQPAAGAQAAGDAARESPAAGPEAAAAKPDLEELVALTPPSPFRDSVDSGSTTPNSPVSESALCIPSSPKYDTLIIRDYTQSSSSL

As to `CN1C(=O)C(c2ccc(C#Cc3ccc(F)cc3)nn2)CC1(C)C` (centres unmarked) [Example 10, 3-(6-((4-fluorophenyl)ethynyl)pyridazin-3-yl)-1,5,5-trimethylpyrrolidin-2-one], the EC50 turned out to be 247 nM and the Emax turned out to be 99%.
On to `CN1C(=O)[C@@H](c2ccc(C#Cc3ccccc3)cn2)[C@@H]2CCCC[C@@H]21` [Example 36, (3R,6S,7S)-1-Methyl-3-(5-phenylethynyl-pyridin-2-yl)-octahydro-indol-2-one], for which the response was half-maximal at 84 nM (EC50) and the Emax is 92%.
Take `CN1C(=O)[C@H](c2ccc(C#Cc3ccccc3)cn2)[C@H]2CCCC[C@H]21` [Example 37, (3S,6R,7R)-1-Methyl-3-(5-phenylethynyl-pyridin-2-yl)-octahydro-indol-2-one]: the EC50 was 84 nM and the Emax stood at 49%.
For `CN1C(=O)[C@@H](c2ccc(C#Cc3cccc(F)c3)cn2)[C@@H]2CCCC[C@@H]21` [Example 40, (3R,6S,7S)-3-[5-(3-Fluoro-phenylethynyl)-pyridin-2-yl]-1-methyl-octahydro-indol-2-one] the same measures were 89 nM and 68%.
For `CN1C(=O)[C@H](c2ccc(C#Cc3cccc(F)c3)cn2)[C@H]2CCCC[C@H]21` [Example 41, (3S,6R,7R)-3-[5-(3-fluoro-phenylethynyl)-pyridin-2-yl]-1-methyl-octahydro-indol-2-one] the same measures were 68 nM and 56%.
Taken in the same sequence, the figures for `CN1C(=O)[C@@H](c2ccc(C#Cc3ccc(F)cc3)cn2)[C@@H]2CCCC[C@@H]21` [Example 42, (3R,6S,7S)-3-[5-(4-Fluoro-phenylethynyl)-pyridin-2-yl]-1-methyl-octahydro-indol-2-one] were 57 nM and 63%.
Take `CN1C(=O)[C@H](c2ccc(C#Cc3ccc(F)cc3)cn2)[C@H]2CCCC[C@H]21` [Example 43, (3S,6R,7R)-3-[5-(4-fluoro-phenylethynyl)-pyridin-2-yl]-1-methyl-octahydro-indol-2-one]: the EC50 worked out at 146 nM and the Emax was determined as 53%.

Source of the values: patent US9212171B2, “Ethynyl compounds” (Hoffmann-La Roche Inc., priority 2011, dated 2015).
